In patent US20150315188A1, “COMPOUNDS AND METHODS FOR TREATMENT OF HYPERTENSION” (MEDIVATION TECHNOLOGIES, INC., priority 2012, published 2015):

Tests used:
Parameters in all cases: purchased Milipore (Millipore)
[1] = target: T1, Human adrenergic α2B receptor (Homo sapiens, UniProt P18089); test: Radioligand binding, adrenergic α2B (Protocol Group B); conditions: Protocol Group B; for Percentage inhibition of ligand binding, Adrenergic α2B (10 nM) / inhibition at 0.01 µM: 10 nM compound; for Percentage inhibition of ligand binding, Adrenergic α2B (30 nM) / inhibition at 0.03 µM: 30 nM compound; for Percentage inhibition of ligand binding, Adrenergic α2B (30 nM): 0.03 µM; for Percentage inhibition of ligand binding, Adrenergic α2B (0.1 μM) / inhibition at 0.1 µM: 0.1 μM compound; for inhibition at 0.01 µM: read-out: Percentage inhibition of ligand binding, Adrenergic α2B (10 nM); for inhibition at 0.03 µM: read-out: Percentage inhibition of ligand binding, Adrenergic α2B (30 nM); for inhibition at 0.1 µM: read-out: Percentage inhibition of ligand binding, Adrenergic α2B (0.1 μM); for Ki: estimated Ki, read-out: Ki α2B
T1 sequence (P18089 1-450): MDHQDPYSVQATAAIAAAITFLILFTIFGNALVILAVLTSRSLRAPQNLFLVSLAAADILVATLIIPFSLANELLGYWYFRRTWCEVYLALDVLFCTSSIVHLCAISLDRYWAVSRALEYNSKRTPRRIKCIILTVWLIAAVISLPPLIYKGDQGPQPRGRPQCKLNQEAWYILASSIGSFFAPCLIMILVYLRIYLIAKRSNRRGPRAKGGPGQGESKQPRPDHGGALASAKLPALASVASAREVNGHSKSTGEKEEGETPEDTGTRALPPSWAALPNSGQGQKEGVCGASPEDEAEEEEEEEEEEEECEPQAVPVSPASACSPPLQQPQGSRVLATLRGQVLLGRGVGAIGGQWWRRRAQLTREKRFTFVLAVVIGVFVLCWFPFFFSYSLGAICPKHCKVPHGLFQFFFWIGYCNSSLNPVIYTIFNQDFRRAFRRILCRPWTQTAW
How it was run: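 Compounds at various concentrations in 1% DMSO were tested on recombinant membranes in Tris-HCl pH 7.4 buffer containing MgCl2, CaCl2 and 0.2% BSA.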

[2] = target: T2, Human adrenergic α2A receptor (Homo sapiens, UniProt P08913); test: Radioligand binding, adrenergic α2A (Protocol Group B); conditions: Protocol Group B; for Percentage inhibition of ligand binding, Adrenergic α2A (0.1 μM): 0.1 μM compound
T2 sequence (P08913 1-465): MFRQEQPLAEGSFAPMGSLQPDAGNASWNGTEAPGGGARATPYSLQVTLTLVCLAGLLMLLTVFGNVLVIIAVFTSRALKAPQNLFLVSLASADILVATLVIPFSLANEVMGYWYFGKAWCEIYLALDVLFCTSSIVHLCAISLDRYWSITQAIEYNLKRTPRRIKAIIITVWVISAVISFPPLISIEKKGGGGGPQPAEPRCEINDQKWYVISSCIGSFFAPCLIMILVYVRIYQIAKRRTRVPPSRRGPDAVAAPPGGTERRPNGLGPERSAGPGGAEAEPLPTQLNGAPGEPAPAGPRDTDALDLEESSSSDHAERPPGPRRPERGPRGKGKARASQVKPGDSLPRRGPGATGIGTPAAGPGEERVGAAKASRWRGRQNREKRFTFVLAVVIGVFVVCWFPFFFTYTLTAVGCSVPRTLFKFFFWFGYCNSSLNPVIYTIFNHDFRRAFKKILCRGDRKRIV
How it was run: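 Compounds (1% DMSO vehicle, various concentrations) competed against 2 nM [^3H]MK-912 on recombinant receptor membranes for 60 min at 25° C, Tris-HCl pH 7.4 buffer with Mg2+, Ca2+, BSA. Bound radioligand filtered and counted; 10 μM rauwolscine set nonspecific binding. Values: percent inhibition of specific binding or estimated Ki.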

[3] = target: T3, Human adrenergic α1B receptor (Homo sapiens, UniProt P35368); test: Radioligand binding, adrenergic α1B (Protocol Group B); conditions: Protocol Group B; for Percentage inhibition of ligand binding, Adrenergic α1B (0.1 μM): 0.1 μM compound
T3 sequence (P35368 1-520): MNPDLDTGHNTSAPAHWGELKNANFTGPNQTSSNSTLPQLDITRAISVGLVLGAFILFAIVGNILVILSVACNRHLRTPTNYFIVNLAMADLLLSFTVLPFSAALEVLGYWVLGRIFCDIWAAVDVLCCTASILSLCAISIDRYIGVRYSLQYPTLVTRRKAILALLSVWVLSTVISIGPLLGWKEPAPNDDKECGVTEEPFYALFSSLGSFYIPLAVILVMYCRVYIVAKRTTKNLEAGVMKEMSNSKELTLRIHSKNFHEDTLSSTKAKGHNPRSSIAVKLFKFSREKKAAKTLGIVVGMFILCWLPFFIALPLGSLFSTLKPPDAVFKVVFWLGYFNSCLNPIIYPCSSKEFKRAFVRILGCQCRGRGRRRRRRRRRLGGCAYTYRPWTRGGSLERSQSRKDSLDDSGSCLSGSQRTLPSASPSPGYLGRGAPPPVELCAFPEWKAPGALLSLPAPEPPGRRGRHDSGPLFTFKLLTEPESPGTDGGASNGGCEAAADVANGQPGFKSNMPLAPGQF
How it was run: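 Values are percent inhibition of specific [3H]prazosin (0.3 nM) binding or estimated Ki, from filtration counting. Human α1B recombinant membranes, Tris-HCl pH 7.4 buffer with MgCl2 and EDTA, 60 min at 25 °C, 1% DMSO vehicle; 10 μM prazosin defined nonspecific binding.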

Compound	Percentage inhibition of ligand binding, Adrenergic α2B (10 nM) ([1]; 0.01 µM)	Percentage inhibition of ligand binding, Adrenergic α2B (30 nM) [1]	Percentage inhibition of ligand binding, Adrenergic α2B (0.1 μM) [1]	Percentage inhibition of ligand binding, Adrenergic α2A (0.1 μM) [2]	Percentage inhibition of ligand binding, Adrenergic α2A (0.3 μM) ([2]; 0.3 μM compound)	Percentage inhibition of ligand binding, Adrenergic α1B (0.1 μM) [3]	Percentage inhibition of ligand binding, Adrenergic α1B (0.3 μM) ([3]; 0.3 μM compound)	Percentage inhibition of ligand binding, Adrenergic α2B (10 nM) [1]	inhibition at 0.01 µM [1]	inhibition at 0.03 µM [1]	inhibition at 0.1 µM [1]	Ki [1]	inhibition at 0.3 µM ([2]; 0.3 μM compound, read-out: Percentage inhibition of ligand binding, Adrenergic α2A (0.3 μM))	inhibition at 0.3 µM ([3]; 0.3 μM compound, read-out: Percentage inhibition of ligand binding, Adrenergic α1B (0.3 μM))
Cc1cc2c3c(n(CC(C)(O)c4ccncc4)c2cc1Cl)CCN1CCCC31 (single isomer, unassigned) [50c]	15%	42%	91%	22%	49%	19%	43%							
Cc1cc2c3c(n(CC(C)(O)c4ccncc4)c2cc1Cl)CCN1CCCC31 (single isomer, unassigned) [50d]	−8%	−2%	13%	−9%	−4%	−8%	4%							
CC(O)(Cn1c2c(c3cc(Cl)cc(F)c31)C1CCCN1CC2)c1ccncc1 (single isomer, unassigned) [52c]		11%	10%	7%	12%	−6%	0%	9%						
CC(O)(Cn1c2c(c3cc(Cl)cc(F)c31)C1CCCN1CC2)c1ccncc1 (single isomer, unassigned) [52d]			1%	−6%	1%	−1%	27%		9%	6%				
CC(O)(Cn1c2c(c3cc(Cl)cc(F)c31)C1CCCN1CC2)c1cccnc1 (single isomer, unassigned) [53a]				60%		12%			87%	97%	98%	1.7 nM	74%	50%
CC(O)(Cn1c2c(c3cc(Cl)cc(F)c31)C1CCCN1CC2)c1cccnc1 (single isomer, unassigned) [53b]	74%	91%	97%	34%	54%	4%	33%					1.8 nM		
CC(O)(Cn1c2c(c3cc(Cl)cc(F)c31)C1CCCN1CC2)c1cccnc1 (single isomer, unassigned) [53c]	−4%	4%	1%	−10%	−15%	1%	−6%							
CC(O)(Cn1c2c(c3cc(Cl)cc(F)c31)C1CCCN1CC2)c1cccnc1 (single isomer, unassigned) [53d]	−3%	−4%	−5%	0%	5%	−16%	−8%							
CN1CCc2c(c3cc(C(F)(F)F)ccc3n2CC(OC2CCCC2)c2ccncc2)C1 (single isomer, unassigned) [60a]	23%			26%	50%	12%	40%			47%	72%			
CN1CCc2c(c3cc(C(F)(F)F)ccc3n2CC(OC2CCCC2)c2ccncc2)C1 (single isomer, unassigned) [60b]	6%	28%	59%	3%	12%	−9%	8%							
Cc1cc(F)c2c(c1)c1c(n2CC(C)(O)c2cccnc2)CC2CCCN2C1 (single isomer, unassigned) [61a]	38%	68%	88%	9%	34%	1%	18%							
